Data reported in PMC10775556, “Synthesis, antileishmanial, antimalarial evaluation and molecular docking study of some hydrazine-coupled pyrazole derivatives” (BMC Chemistry, 2024).
Values after ≈ are worked out from the molar mass of the structure shown. Values joined by “and” are separate entries in the source; they are usually repeats but may differ in a detail not shown here. Equal entries are not always repeated. Where two headings read alike, the source gives them in different places.

Key:
[1] = system: Leishmania aethiopica promastigotes; assay: In vitro antipromastigote (antileishmanial) assay, AlamarBlue; format: cell-based
Description: The viability of promastigotes can be estimated by microscopically counting live cells, measuring enzyme activities via the 3-(4,5-dimethyl-thiazol-2-yl)-2,5-diphenyl-tetrazolium bromide (MTT) assay, etc. The frequent use of these methods is hampered due to the lengthy and time-consuming procedures followed in the test. […] The extent of fluorescence produced by each sample is strongly correlated with the number of living cells.
A complete culture medium was prepared from RPMI-1640, 10% HIFCS, 1% penicillin–streptomycin, and 1% L-glutamine for the in vitro antipromastigote assay. The Leishmania aethiopica isolate was grown first on Novy-MacNeal-Nicolle (NNN) medium and then in tissue-culture flasks containing RPMI-1640 medium supplemented with 10% HIFCS and 1% 100 IU penicillin/mL-100 µg/mL streptomycin solution at 22 ℃ [35].
The entire test compound was dissolved in DMSO to a final concentration of 1 mg/mL. The final DMSO concentration was adjusted not to exceed v/v 1% to avoid its inhibitory effect against parasite proliferation or change in morphology. Six different concentrations of test compounds, ranging from 10 µg/mL to 0.04 µg/mL, were prepared by […] serial dilutions. Amphotericin B deoxycholate (with a concentration ranging from 0.5 µg/mL to 0.002 µg/mL) and miltefosine (with a concentration ranging from 40 µg/mL to 0.16 µg/mL) were used as a positive control and DMSO (v/v 1%) in complete media was used as a negative control to compare the antileishmanial activities of test compounds [36]. All the prepared drugs were stored at − 20 ℃ until used in the experiment.
The antileishmanial activity of the test compounds was evaluated in vitro against isolates of Leishmania aethiopica promastigotes. 100 µL of the parasite suspension containing 3 × 10^6 promastigotes per milliliter was added to 96-well plates. The six different concentrations of test compounds and reference drugs were then added in triplicate. DMSO in complete RPMI media was used as a negative control to compare the antileishmanial activities of the test compounds. After 24 h incubation, 20 µL of fluorochrome AlamarBlue® (12.5 mg resazurin dissolved in 100 mL of distilled water) was added to each well. Then, the absorbance of each well was measured after 4 h of incubation at wavelengths of 492 and 630 nm using an ELISA reader for the quantitative determination of viable cells. Finally, the IC50 values were computed from sigmoidal dose–response curves using GraphPad Prism 5.0 software (GraphPad Software, Inc., San Diego, CA, USA).

[2] = system: Plasmodium berghei ANKA strain; assay: In vivo antimalarial four-day suppressive test; design: species or system Swiss albino mice; details: for Mean survival time: 48.46 µmol/kg per day (CQ 25 mg/kg), ND = no mouse death recorded during the study period; for Mean survival time / % Parasitemia: mean ± SD; for inhibition in vivo at 48.46 µmol/kg: Plasmodium berghei, in Mus musculus, 96 h, read-out: % Suppression
Excerpt: The four-day suppressive test was implemented to screen the antimalarial activity of the target compounds as it is effective in evaluating early infections and convenient to assess the prodrug effects of test compounds [30]. In this study, the in vivo antimalarial activity of the target compounds was investigated by using mice infected with Plasmodium berghei (achieve steady-state infection) at a dose of 48.4 µmol/kg per day. The results of the antimalarial activity screening of target compounds against the control groups were expressed based on mean parasitemia and percent inhibition of parasitemia (Table 2) which is known as a reliable parameter for in vivo antimalarial screening tests. […] While compounds 9, 10 and 11 containing amidic carbonyl group had less than 50% mean percent suppression compared to the positive control groups. Among the tested compounds, bis-[N,N-dimethylaminomethylene-4-(3-(4-methylphenyl)-4-(hydrazonomethylene)-1H-pyrazole-1-yl)benzenesulfonamide] […] On the other hand, there was an increase in the mean survival time (9.8 ± 1.3) of mice treated with a half dose ([…]) of compound 15, highlighting the potential dose-dependent toxicity associated with bis-structure due to cleavage of acid labile C = N bond and subsequent increase in concentration in the systemic circulation. […] This could be attributed to the presence of a primary amine group adjacent to the C = N bond that can increase the strength of binding interaction with the active site of the receptor by hydrogen bonding. Moreover, the hydrophobic interaction imparted by the methylated phenyl group with the amino acid residues in the enzyme pocket may be beneficial for the observed antimalarial activity of compound 14. The compounds containing C = O bond (9–12) near C = N had relatively lower antimalarial activity due to the electron-withdrawing effect and subsequent decrease in hydrogen bonding interactions with the different functional groups reside in the enzyme pocket.
The in vivo antimalarial activity of the synthesized compounds was determined using the four-day standard suppressive test using Swiss albino mice donated by the Ethiopian Health and Nutrition Institute, Addis Ababa, Ethiopia. Briefly, Swiss albino mice were infected with Plasmodium berghei ANKA strain (0.2 mL of 2 × 10^7 parasitized erythrocytes) through intraperitoneal injection. After 2 h of infection, the mice were weighed and randomly divided into nine groups of five mice per cage. Groups 1–7 received each test compound ([…]) dissolved in a vehicle containing 7% Tween 80, 3% ethanol, and water. Group 8 was treated with chloroquine phosphate (25 mg/kg) suspended in 7% Tween 80, 3% ethanol, and water which served as a positive control. Group 9 received 2 mL/100 g of the negative control (vehicle 7% Tween 80, 3% ethanol, and water). On day four (96 h post-infection), a blood smear was taken from the tail of each mouse, fixed with absolute ethanol, and stained with Giemsa stain. Then, the level of parasitemia was determined microscopically by counting four fields of approximately 100 erythrocytes per field. Finally, the antimalarial effects of control groups and test compounds were expressed in terms of blood parasitemia, percent suppression and mean survival time of mice.
The % suppression and % parasitemia in the antimalarial activity testing were computed using the formulas given below and the resulting data along with the mean survival time was analyzed using Microsoft office excel 2007. The variation in the values of suppressive test was assessed by using one-way analysis of variance (ANOVA) and p < 0.05 is considered as stastically significant.
Parasitemia(%)=Numberofinfectedredbloodcells/Numberoftotalredbloodcells×100
Suppression(%)=Parasitemiaintheuntreatedgroup-Parasitemiainthetreatedgroup/Parasitemiainuntreatedgroup×100

[3] = system: chloroquine-resistant RKL9 strains; details: read-out: IC50 against chloroquine-resistant RKL9 strains; cited from earlier work
[4] = In vitro cytotoxicity test; format: cell-based, African green monkey; details: African green monkey, VERO cells (African green monkey kidney cells); normal VERO cells, 72 h, formazan OD
Description: (§1) The cytotoxicity of compound 13 with promising antileishmanial activity was investigated in vitro against African green monkey kidney cells (VERO cells). In a 96-well plate, VERO cells (1 × 10^5 cells per well) were incubated in triplicates with different concentrations of compound 13 (0–100 µM) for 72 h at 37 ℃ incubator with 95% humidity and 5% CO2 and the cell viability was determined by measuring the optical density (OD) of formazan. […] The CC50 and IC50 values were computed using the formula: Growth inhibition (%) = (ODcontrol-ODtest/ODcontrol)×100 . In addition, the selectivity indices (SI) were computed using the formula SI = CC50/IC50.

VERO cells = assay: In vitro cytotoxicity test; format: cell-based, African green monkey; details: CC50 VERO cells / IC50 Leishmania aethiopica
Description: as §1

[5] = In vivo acute toxicity test (oral and intraperitoneal); details: mice
Description: The mice were weighed and divided into five groups of six mice per cage. After fasting them overnight, groups 1–4 received the test compound suspended in 1% acacia gum was administered orally at doses of 50, 100, 200, and 300 mg/kg. Group 5 (served as a control) was treated with the solvent (1% acacia gum) at a maximum dose of 1 mL/100 gm of body weight. […] Follow-up continued for 14 days with special attention for the first 24 h.

[6] = design: method as in PMID 25768697; details: cited from earlier work
[7] = Leishmania aethiopica promastigotes, triplicate, 24 h incubation + 4 h AlamarBlue, read-out: IC50 Values (µg/mL), antipromastigote activity
[8] = Leishmania aethiopica promastigotes, molar form of the µg/mL values, read-out: IC50 Values (µM/mL), antipromastigote activity
[9] = P. berghei infected mice, day 4, 48.46 µmol/kg per day (CQ 25 mg/kg)
[10] = Leishmania aethiopica, value used for selectivity index, read-out: IC50 (µM) of antileishmanial activity (Table 3)

| Structure (SMILES) | IC50 [1, 7] [µg/mL] | IC50 [1, 8] [µM] | Mean survival time ([2]; P. berghei infected mice) [days] | % Parasitemia [2, 9] [%] | inhibition in vivo at 48.46 µmol/kg [2, 9] [%] | other results |
| --- | --- | --- | --- | --- | --- | --- |
| Cc1ccc(-c2nn(-c3ccc(S(N)(=O)=O)cc3)cc2/C=N/N)cc1 [Compound 14, 4-[3-(4-methylphenyl)-4-hydrazonomethylene-1H-pyrazol-1-yl] benzenesulfonamide] | 3.26 | 6.71 | 9.0 ± 2.0 | 15.5 ± 4.1 | – | – |
| CCN(CC)CCCC(C)Nc1ccnc2cc(Cl)ccc12 (stereo not drawn) [CQ, Chloroquine phosphate, reference compound] | – | – | – | 0 | – | inhibition in vivo at 48.46 µmol/kg [2]: 100%; IC50 [3]: 192 nM |
| Cc1ccc(-c2nn(-c3ccc(S(=O)(=O)N=CN(C)C)cc3)cc2/C=N/Nc2ccccc2)cc1 [Compound 13, N,N-dimethylaminomethylene-4-[(3-(4-methylphenyl)-4-(phenylhydrazonomethylene))-1H-pyrazol-1-yl]benzenesulfonamide] | – | – | 9.5 ± 1.9 | 24.0 ± 1.7 | > 50 | IC50 ([1]; Leishmania aethiopica, read-out: IC50 Values (µM/mL), antipromastigote activity): 0.033 µM; IC50 [1, 10]: 0.604 µM; fold more active than amphotericin B deoxycholate (antipromastigote) ([1]; ratio of IC50 values versus amphotericin B deoxycholate): ~2.6 fold; CC50 at 72 h [4]: 118000 nM; SI (selectivity index, CC50/IC50) (VERO cells): 194 and 194.88; intraperitoneal acute toxicity ([5]; intraperitoneal injection ≤ 140 mg/kg, within 24 h or the entire study period): devoid of any inherent dose-dependent toxicity or death; oral acute toxicity: death ([5]; oral 50, 100, 200 and 300 mg/kg, 14 days): devoid of any death at all dose; oral acute toxicity: physical and gross behavioral observations ([5]; oral, up to highest dose 300 mg/kg): no visible symptoms of toxicity |
| Cc1ccc(-n2cc(C=NNC(=O)c3ccccc3O)c(-c3ccccc3)n2)cc1 [Compound 11, Nʹ-[(3-phenyl-1-(4-methylphenyl)-1H-pyrazol-4-yl)methylene] salicylhydrazide] | 5.74 | 10.4 | 8.7 ± 0.7 | 30.0 ± 6.7 | < 50 | – |
| Cc1ccc(-c2nn(-c3ccc(S(=O)(=O)N=CN(C)C)cc3)cc2/C=N/NC(=O)c2ccccc2O)cc1 [Compound 12] | 0.111 | 0.28 | 7.8 ± 1.2 | 67.9 ± 3.7 | – | – |
| Cc1ccc(-c2nn(-c3ccc(S(=O)(=O)N=CN(C)C)cc3)cc2C=NN=Cc2cn(-c3ccc(S(=O)(=O)N=CN(C)C)cc3)nc2-c2ccc(C)cc2)cc1 [Compound 15, Bis-[N,N-dimethylaminomethylene-4-(3-(4-methylphenyl)-4-(hydrazonomethylene)-1H-pyrazole-1-yl)benzenesulfonamide]] | 0.181 | 0.441 | 7.7 ± 1.4 | 5.0 ± 1.4 | – | mean survival time at half dose ([2]; P. berghei infected mice, half dose (24.2 µmol/mL)): 9.8 ± 1.3 |
| CCCCCCCCCCCCCCCCOP(=O)([O-])OCC[N+](C)(C)C [Miltefosine, hexadecylphosphocholine, reference compound] | 3.13 | 7.68 | – | – | – | IC50 [1, 10]: 7.9 µM; CC50 at 72 h [4]: 99700 nM; SI (selectivity index, CC50/IC50) (VERO cells): 12.63; IC50, antileishmanial activities [6]: 3.1921 µg/mL (≈ 7.83 µM) |
| O=C(NN=Cc1cn(-c2ccc(Br)cc2)nc1-c1ccccc1)c1ccccc1O [Compound 9, Nʹ-[(1-(4-bromophenyl)-3-phenyl-1H-pyrazol-4-yl)methylene] salicylhydrazide] | 0.084 | 0.256 | 8.6 ± 1.8 | 34.7 ± 4.1 | < 50 | – |
| CN(C)C=NS(=O)(=O)c1ccc(-n2cc(/C=N/NC(=O)c3ccccc3O)c(-c3ccc(Cl)cc3)n2)cc1 [Compound 10, Nʹ-[(3-(4-chlorophenyl)-1-((4-N,N-dimethylaminomethylenesulfonamido)phenyl)-1H-pyrazol-4-yl)methylene] salicylhydrazide] | 0.207 | 0.45 | 6.8 ± 0.7 | 33.0 ± 6.7 | < 50 | – |
| C[C@@H]1[C@H](O)[C@@H](C)/C=C/C=C/C=C/C=C/C=C/C=C/C=C/[C@H](O[C@@H]2O[C@H](C)[C@@H](O)[C@H](N)[C@@H]2O)C[C@@H]2O[C@](O)(C[C@@H](O)C[C@@H](O)[C@H](O)CC[C@@H](O)C[C@@H](O)CC(=O)O[C@H]1C)C[C@H](O)[C@H]2C(=O)O [Amphotericin B, Amphotericin B deoxycholate, reference compound] | 0.047 | 0.035 | – | – | – | IC50, antileishmanial activities [6]: 0.0472 µg/mL (≈ 0.0511 µM) |
